Legend:
[1] = system: NF-κB phosphorylation in DC2.4 cells; test: NF-κB phosphorylation in DC2.4 dendritic cells (flow cytometry); type: cell-based, murine
Method: (§1) Prior to prepping cells, the cone-and-plate was incubated with 5% bovine serum albumin (BSA) for 1 h in order to block non-specific binding. DC2.4 cells were lifted with trypsin, washed, and resuspended in complete RMPI media at 200,000 cells/mL. Cells were placed on a rotator for static conditions. For shear conditions, an FSS of 5.0 dyn/cm^2 was applied for 1 h using cone-and-plate flow device. Static and shear conditions were either left untreated or treated with lipopolysaccharide (LPS) potent stimulator at 10 μg/mL.
(§2) Flow cytometry analysis and antibody staining: Following FSS stimulation, cells were plated overnight or immediately prepped for flow cytometry analysis. For intracellular proteins such as NF-κB and AP-1, cells were fixed with 4% paraformaldehyde for 10 min. Cells were washed with HBSS and permeabilized with 100% ice cold methanol. Cells were washed again and stained for 15 min in the dark with antibodies fluorescently-labeled with PE fluorophore while suspended in 1% BSA. Guava easyCyte 5HT flow cytometer was used to measure fluorescent intensity, with FloJo software used for gating and analysis. For extracellular proteins analyzed after 24 h, cells were lifted with trypsin, washed, and incubated with fluorescently-labeled antibodies in 1% BSA and then washed a final time.
(§3) Inhibition of NF-κB: NF-κB was inhibited using caffeic acid phenethyl ester (CAPE). DC2.4 cells were lifted, washed and suspended in 200,000 cells/mL complete media. 1 μL of CAPE was added to this suspension. Cells were placed on a rotator for 30 min to allow for effective inhibition, and then added to the cone-and-plate viscometer for FSS stimulation. Following FSS, NF-κB phosphorylation analysis was performed after 1 h FSS. Following stimulation, 100,000 cells were plated overnight for cytokine analysis and 100,000 cells were immediately analyzed for NF-κB phosphorylation. NF-κB and cytokine assays were performed as described previously.
GsMTx4: GsMTx-4 (ab141871) was purchased from Abcam. […] Following FSS, cells were prepared and analyzed for NF-κB phosphorylation as previously described. […]

[2] = system: DC2.4 cells; test: Intracellular cytokine staining of DC2.4 cells after 24 h (IL-6, IL-12, CCR7); type: cell-based, murine
Method: as §1
Cytokine staining: For intracellular cytokine staining (ICS), cells were plated overnight following FSS stimulation. After 24 h, cells were treated with 1:1000 GolgiPlug Transport Inhibitor to block cytokine secretion. After 4 h, cells were lifted and stained following the previously described protocol for staining intracellular proteins. IL-6, IL-12 and CCR7 were investigated in this study.
as §3

[3] = system: ZAP70 phosphorylation in Jurkat cells; test: ZAP70 phosphorylation of Jurkat cells treated with FSS and CD3/CD28 antibodies (flow cytometry); type: cell-based, human
Method: T cell activation by FSS: Jurkat or primary T cells were collected and resuspended at a concentration of 200,000 cells/mL in complete RPMI 1640 media. The cells were treated with or without functional grade antibodies targeting CD3 (OKT3) and CD28 (CD28.2) at a concentration of 2 μg/mL for both antibodies. The T cells were then loaded into a Brookfield cone-and-plate viscometer for FSS treatment as described previously in Mitchell & King (Mitchell, M. J. et al. New J. Phys. 2013 15:015008). In a cone-and-plate viscometer the FSS magnitude is equal in all radial locations of the viscometer. The shear rate (G) is defined by the equation:
τ=μG • where μ is the viscosity (cP) of the fluid. In these experiments, viscosity was approximately 2.5 cP. Before FSS treatment, the cone-and-plate viscometer was cleaned thoroughly with 70% ethanol. The stationary plate and the rotating cone were then incubated with 5% BSA for 1 h to block nonspecific adhesion. The cells were exposed to fluid shear stress ranging from 0.5-5.0 dyn/cm^2 for times ranging from 15 to 60 min. Primarily, the cells were treated with FSS of magnitude 5.0 dyn/cm^2 for 1 h.
Where indicated, Jurkat cells were pretreated with different compounds prior to antibody and FSS treatment. The Jurkat cells were incubated with either 5 μM Cyclosporin A (CSA), 10 μM Cytochalasin D (CCD), 10 μM GsMTx-4, or 2 mM EGTA 30 min prior to antibody and FSS treatment.
Flow cytometry antibody staining: When staining for intracellular proteins, the cells were immediately fixed with 4% paraformaldehyde for 10 min. The cells were washed thoroughly and permeabilized with 100% ice cold methanol for 10 min. After washing the cells, the cells were stained with the indicated fluorescent-tagged antibodies for 15 min in 1% BSA. The fluorescence of each sample was measured using a Gauva easyCyte 5HT flow cytometer. Gating was performed using FlowJo software. For Jurkat samples, debris was gated out and fluorescence was quantified using FlowJo software.

[4] = system: DC2.4 cells; test: Costimulatory molecule expression in DC2.4 cells 24 h after stimulation; type: cell-based, murine; conditions: 10 μg/mL LPS, 24 h after 1 h stimulation, regardless of shear stress
Method: as §1, §2

[5] = after CAPE treatment and FSS, 24 h
[6] = Jurkat cells pretreated 10 μM 30 min prior to FSS and antibody treatment, compared to FSS and antibodies without the inhibitor

`O=C(/C=C/c1ccc(O)c(O)c1)OCCc1ccccc1` [CAPE, caffeic acid phenethyl ester] was tested, and the “NF-κB phosphorylation compared to untreated cells” value ([1]; DC2.4 cells, CAPE 30 min before 1 h FSS) was “significant reduction”, the CCR7 production [2, 5] was “strong trend in the reduction” and the IL-6 production [2, 5] was “strong trend in the reduction”. The IL-12 release [2, 5] was “significant reduction”.

In the case of `O=C(O)CN(CCOCCOCCN(CC(=O)O)CC(=O)O)CC(=O)O` [EGTA], the ZAP70 phosphorylation ([3]; Jurkat cells pretreated 2 mM for 30 min, then FSS and antibodies, compared to FSS and antibodies only) is reported as “significant reduction”.

lipopolysaccharide [LPS] was tested, and the “NF-κB phosphorylation, FSS with LPS versus FSS without LPS” value ([1]; DC2.4 cells, 10 μg/mL LPS, 5.0 dyn/cm^2 FSS, 1 h) was “no significant difference”, the “CD40 costimulatory molecule expression enhanced in the presence of LPS” value [4] was “significant” and the “CD80 costimulatory molecule expression enhanced in the presence of LPS” value [4] was “trend”. The “release of IL-6, IL-12 and CCR7, FSS versus FSS with LPS” value ([2]; 10 μg/mL LPS, 24 h after 1 h 5.0 dyn/cm^2 FSS) was “not a significant difference”.

For GsMTx-4, the ZAP70 phosphorylation [3, 6] was “significant reduction” and the NF-κB phosphorylation ([1]; DC2.4 cells incubated with 10 μmol GsMTx4, FSS, two replicates) was “reduced”.

In the case of `C=C1[C@@H](C)[C@H]2[C@H](Cc3ccccc3)NC(=O)[C@]23[C@H](OC(C)=O)/C=C/[C@@](C)(O)C(=O)[C@@H](C)C/C=C/[C@H]3[C@@H]1O` [CCD, Cytochalasin D], the “ZAP70 phosphorylation (activation), antibody-only condition” value ([3]; Jurkat cells pretreated 10 μM 30 min, antibody-only, no FSS) is reported as “not significantly altering” and the ZAP70 phosphorylation [3, 6] is reported as “significantly reduced”.

Source: patent US20240327792A1, “FLUID SHEAR STRESS FOR EX VIVO ACTIVATION OF IMMUNE EFFECTOR CELLS” (Vanderbilt University, priority 2021, published 2024)
